Measurements reported in US11117892B2, “Pyrrolo-pyridine derivative compound, method for preparing same, and pharmaceutical composition containing same as active ingredient for prevention or treatment of protein kinase-related diseases” (DAEGU-GYEONGBUK MEDICAL INNOVATION FOUNDATION, priority 2017, dated 2021).
Like-named read-outs stand apart in the source and are kept apart here.

Legend:
Experiment in all cases: scanMAX Kinase assay panel
Format in all cases: binding
IRAK1 = IRAK1 (Homo sapiens (Human), UniProt P51617); details: read-out: % control
Description: (§1) DiscoverX Co. was asked to measure the enzyme (kinase) selectivity, and the experiment was performed using scanMAX™ Kinase assay panel.
(§2) (Example Compound−Positive Control)/(Negative Control−Positive Control)×100 [Equation 1]
(§3) Herein, the positive control indicates the compound showing the % control of 0%, and the negative control indicates DMSO showing the % control of 100%.

DMPK2 = DMPK2 (Homo sapiens (Human), UniProt Q6DT37); details: read-out: % control
Description: as §1, §2, §3

ABL1-phosphorylated = ABL1-phosphorylated (Homo sapiens (Human), UniProt P00519); details: read-out: % control
Description: as §1, §2, §3

[1] = biological target: ABL1(F317I)-phosphorylated (Homo sapiens (Human), UniProt P00519, F317I); details: read-out: % control
Description: as §1, §2, §3

[2] = biological target: RPS6KA5(Kin.Dom.2-C-terminal) (Homo sapiens (Human), UniProt O75582); details: read-out: % control
Sequence of RPS6KA5(Kin.Dom.2-C-terminal) (O75582 426-687): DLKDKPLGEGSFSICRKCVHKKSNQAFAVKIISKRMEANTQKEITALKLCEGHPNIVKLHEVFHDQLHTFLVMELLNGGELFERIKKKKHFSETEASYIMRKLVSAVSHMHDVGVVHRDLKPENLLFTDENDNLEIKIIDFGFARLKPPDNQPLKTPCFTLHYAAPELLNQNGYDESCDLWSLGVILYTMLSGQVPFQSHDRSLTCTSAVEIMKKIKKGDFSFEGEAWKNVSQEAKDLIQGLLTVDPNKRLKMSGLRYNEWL
Description: as §1, §2, §3

JNK1 = JNK1 (Homo sapiens (Human), UniProt P45983); details: read-out: % control
Sequence of JNK1 (P45983 whole entry): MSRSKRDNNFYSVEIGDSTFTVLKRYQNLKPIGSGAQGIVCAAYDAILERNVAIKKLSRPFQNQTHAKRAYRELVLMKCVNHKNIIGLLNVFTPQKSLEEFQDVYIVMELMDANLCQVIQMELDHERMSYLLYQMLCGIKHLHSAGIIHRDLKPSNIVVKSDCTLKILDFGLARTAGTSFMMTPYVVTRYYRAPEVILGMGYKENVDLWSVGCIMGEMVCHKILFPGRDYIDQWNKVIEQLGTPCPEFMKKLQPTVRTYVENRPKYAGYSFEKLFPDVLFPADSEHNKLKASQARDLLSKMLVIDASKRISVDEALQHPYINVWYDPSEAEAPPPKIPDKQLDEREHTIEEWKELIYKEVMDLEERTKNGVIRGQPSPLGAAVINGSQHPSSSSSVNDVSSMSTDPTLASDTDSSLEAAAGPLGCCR
Description: as §1, §2, §3

TNIK = TNIK (Homo sapiens (Human), UniProt Q9UKE5); details: read-out: % control
Description: as §1, §2, §3

CASK = CASK (Homo sapiens (Human), UniProt O14936); details: read-out: % control
Sequence of CASK (O14936 whole entry): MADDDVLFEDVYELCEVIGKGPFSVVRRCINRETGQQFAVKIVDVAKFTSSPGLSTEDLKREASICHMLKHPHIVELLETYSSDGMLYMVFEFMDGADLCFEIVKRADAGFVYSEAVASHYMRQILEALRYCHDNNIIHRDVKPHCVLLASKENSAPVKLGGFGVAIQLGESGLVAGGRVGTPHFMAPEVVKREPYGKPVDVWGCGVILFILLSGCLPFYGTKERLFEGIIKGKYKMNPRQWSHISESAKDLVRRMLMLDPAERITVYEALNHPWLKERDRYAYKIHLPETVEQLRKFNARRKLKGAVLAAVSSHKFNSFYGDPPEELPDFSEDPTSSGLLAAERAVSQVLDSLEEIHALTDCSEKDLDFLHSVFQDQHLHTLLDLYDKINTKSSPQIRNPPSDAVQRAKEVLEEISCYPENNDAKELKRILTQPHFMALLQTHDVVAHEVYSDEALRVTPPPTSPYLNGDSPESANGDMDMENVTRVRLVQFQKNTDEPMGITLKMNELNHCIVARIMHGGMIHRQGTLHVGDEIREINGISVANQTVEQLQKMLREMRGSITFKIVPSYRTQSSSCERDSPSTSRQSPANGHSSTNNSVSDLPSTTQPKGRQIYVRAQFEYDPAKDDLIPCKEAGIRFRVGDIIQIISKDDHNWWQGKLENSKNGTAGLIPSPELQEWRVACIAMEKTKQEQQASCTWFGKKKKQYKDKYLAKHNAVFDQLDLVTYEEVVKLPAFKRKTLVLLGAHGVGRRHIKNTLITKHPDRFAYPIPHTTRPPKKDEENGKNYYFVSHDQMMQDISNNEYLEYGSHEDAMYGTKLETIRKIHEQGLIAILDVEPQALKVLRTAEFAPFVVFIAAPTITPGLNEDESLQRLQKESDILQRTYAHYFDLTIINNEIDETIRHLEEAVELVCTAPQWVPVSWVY
Description: as §1, §2, §3

PIM3 = PIM3 (Homo sapiens (Human), UniProt Q86V86); details: read-out: % control
Description: as §1, §2, §3

AKT3 = AKT3 (Homo sapiens (Human), UniProt Q9Y243); details: read-out: % control
Description: as §1, §2, §3

EGFR(S752-I759del) = EGFR(S752-I759del) (Homo sapiens (Human), UniProt P00533, DEL752-759); details: read-out: % control
Description: as §1, §2, §3

[3] = biological target: JAK1(JH1domain-catalytic) (Homo sapiens (Human), UniProt P23458); details: read-out: % control
Description: as §1, §2, §3

CSNK1D = CSNK1D (Homo sapiens (Human), UniProt P48730); details: read-out: % control
Description: as §1, §2, §3

CDKL3 = CDKL3 (Homo sapiens (Human), UniProt Q8IVW4); details: read-out: % control
Description: as §1, §2, §3

[4] = biological target: RSK1(Kin.Dom.2-C-terminal) (Homo sapiens (Human), UniProt Q15418); details: read-out: % control
Sequence of RSK1(Kin.Dom.2-C-terminal) (Q15418 418-675): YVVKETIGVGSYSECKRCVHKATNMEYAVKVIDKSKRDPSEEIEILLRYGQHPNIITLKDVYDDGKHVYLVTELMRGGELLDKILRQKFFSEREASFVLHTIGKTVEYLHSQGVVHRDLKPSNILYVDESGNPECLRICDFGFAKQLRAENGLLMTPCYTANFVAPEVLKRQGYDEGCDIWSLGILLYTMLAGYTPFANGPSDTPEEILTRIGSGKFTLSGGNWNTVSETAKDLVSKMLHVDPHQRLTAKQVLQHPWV
Description: as §1, §2, §3

FLT3(ITD, F691L) = details: 1 uM
Description: as §1, §2, §3

TTK = TTK (Homo sapiens (Human), UniProt P33981); details: read-out: % control
Sequence of TTK (P33981 whole entry): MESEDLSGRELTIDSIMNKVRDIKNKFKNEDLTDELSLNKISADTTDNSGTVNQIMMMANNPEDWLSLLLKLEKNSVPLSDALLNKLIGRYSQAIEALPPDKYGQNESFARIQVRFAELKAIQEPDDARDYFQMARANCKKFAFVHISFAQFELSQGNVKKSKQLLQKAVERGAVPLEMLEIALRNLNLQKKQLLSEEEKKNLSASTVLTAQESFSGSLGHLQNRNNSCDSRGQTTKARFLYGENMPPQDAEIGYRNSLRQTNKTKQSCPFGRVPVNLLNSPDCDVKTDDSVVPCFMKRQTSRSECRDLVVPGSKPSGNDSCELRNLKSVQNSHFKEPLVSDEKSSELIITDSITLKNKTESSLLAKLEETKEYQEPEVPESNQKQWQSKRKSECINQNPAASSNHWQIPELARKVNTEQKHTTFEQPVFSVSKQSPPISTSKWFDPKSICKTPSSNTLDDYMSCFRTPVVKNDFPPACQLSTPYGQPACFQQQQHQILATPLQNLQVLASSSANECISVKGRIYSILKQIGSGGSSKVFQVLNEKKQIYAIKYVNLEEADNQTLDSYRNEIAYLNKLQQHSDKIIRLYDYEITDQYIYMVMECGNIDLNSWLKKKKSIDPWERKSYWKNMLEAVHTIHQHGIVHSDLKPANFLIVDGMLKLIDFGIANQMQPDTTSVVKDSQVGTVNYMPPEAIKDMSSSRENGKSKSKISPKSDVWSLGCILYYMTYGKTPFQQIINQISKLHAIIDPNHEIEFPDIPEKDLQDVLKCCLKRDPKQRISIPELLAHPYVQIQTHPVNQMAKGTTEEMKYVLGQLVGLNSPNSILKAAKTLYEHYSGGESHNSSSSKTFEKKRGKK
Description: as §1, §2, §3

TGFBR2 = TGFBR2 (Homo sapiens (Human), UniProt P37173); details: read-out: % control
Description: as §1, §2, §3

FGFR3(G697C) = FGFR3(G697C) (Homo sapiens (Human), UniProt P22607, G697C); details: read-out: % control
Sequence of FGFR3(G697C) (P22607 23-806 G697C): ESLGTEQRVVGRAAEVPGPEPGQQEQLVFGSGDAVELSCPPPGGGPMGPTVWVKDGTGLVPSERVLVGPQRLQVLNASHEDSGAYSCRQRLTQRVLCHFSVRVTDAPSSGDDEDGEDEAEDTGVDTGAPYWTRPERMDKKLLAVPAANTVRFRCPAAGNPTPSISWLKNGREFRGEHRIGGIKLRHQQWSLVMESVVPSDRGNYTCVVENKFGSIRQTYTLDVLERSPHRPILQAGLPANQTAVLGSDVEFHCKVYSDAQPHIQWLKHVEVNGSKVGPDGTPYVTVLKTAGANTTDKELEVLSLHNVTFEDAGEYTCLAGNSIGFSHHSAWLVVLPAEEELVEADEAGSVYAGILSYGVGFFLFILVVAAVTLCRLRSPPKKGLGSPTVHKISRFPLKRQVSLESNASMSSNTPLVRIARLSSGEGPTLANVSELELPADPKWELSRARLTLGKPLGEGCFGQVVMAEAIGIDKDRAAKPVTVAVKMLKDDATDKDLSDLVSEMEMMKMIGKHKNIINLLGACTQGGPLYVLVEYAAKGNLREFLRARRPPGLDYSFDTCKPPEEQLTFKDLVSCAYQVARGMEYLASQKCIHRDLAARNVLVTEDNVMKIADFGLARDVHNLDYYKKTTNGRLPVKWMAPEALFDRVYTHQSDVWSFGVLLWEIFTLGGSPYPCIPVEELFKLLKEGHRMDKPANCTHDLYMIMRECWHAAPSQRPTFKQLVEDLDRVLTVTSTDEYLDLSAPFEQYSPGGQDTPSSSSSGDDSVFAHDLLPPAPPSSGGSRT
Description: as §1, §2, §3

PDGFRB = PDGFRB (Homo sapiens (Human), UniProt P09619); details: read-out: % control
Description: as §1, §2, §3

NEK9 = NEK9 (Homo sapiens (Human), UniProt Q8TD19); details: read-out: % control
Description: as §1, §2, §3

TXK = TXK (Homo sapiens (Human), UniProt P42681); details: read-out: % control
Description: as §1, §2, §3

PAK4 = PAK4 (Homo sapiens (Human), UniProt O96013); details: read-out: % control
Description: as §1, §2, §3

ADCK4 = ADCK4 (Homo sapiens (Human), UniProt Q96D53); details: read-out: % control
Description: as §1, §2, §3

CSNK1A1 = CSNK1A1 (Homo sapiens (Human), UniProt P48729); details: read-out: % control
Sequence of CSNK1A1 (P48729 whole entry): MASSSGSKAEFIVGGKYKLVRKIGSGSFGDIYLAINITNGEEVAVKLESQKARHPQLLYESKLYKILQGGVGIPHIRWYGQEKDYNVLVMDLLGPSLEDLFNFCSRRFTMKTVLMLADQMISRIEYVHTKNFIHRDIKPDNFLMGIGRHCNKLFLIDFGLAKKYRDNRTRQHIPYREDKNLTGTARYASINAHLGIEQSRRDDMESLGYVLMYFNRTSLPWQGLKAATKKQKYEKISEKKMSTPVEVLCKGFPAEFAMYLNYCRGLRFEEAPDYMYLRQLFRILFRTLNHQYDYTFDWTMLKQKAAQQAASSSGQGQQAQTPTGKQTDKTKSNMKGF
Description: as §1, §2, §3

SRPK1 = SRPK1 (Homo sapiens (Human), UniProt Q96SB4); details: read-out: % control
Description: as §1, §2, §3

NDR1 = NDR1 (Homo sapiens (Human), UniProt Q15208); details: read-out: % control
Description: as §1, §2, §3

IKK-beta = IKK-beta (Homo sapiens (Human), UniProt O14920); details: read-out: % control
Description: as §1, §2, §3

FLT3(D835H) = FLT3(D835H) (Homo sapiens (Human), UniProt P36888, D835H); details: read-out: % control
Description: as §1, §2, §3

p38-beta = p38-beta (Homo sapiens (Human), UniProt Q15759); details: read-out: % control
Description: as §1, §2, §3

SIK = SIK (Homo sapiens (Human), UniProt P57059); details: read-out: % control
Description: as §1, §2, §3

STK35 = STK35 (Homo sapiens (Human), UniProt Q8TDR2); details: read-out: % control
Sequence of STK35 (Q8TDR2 whole entry): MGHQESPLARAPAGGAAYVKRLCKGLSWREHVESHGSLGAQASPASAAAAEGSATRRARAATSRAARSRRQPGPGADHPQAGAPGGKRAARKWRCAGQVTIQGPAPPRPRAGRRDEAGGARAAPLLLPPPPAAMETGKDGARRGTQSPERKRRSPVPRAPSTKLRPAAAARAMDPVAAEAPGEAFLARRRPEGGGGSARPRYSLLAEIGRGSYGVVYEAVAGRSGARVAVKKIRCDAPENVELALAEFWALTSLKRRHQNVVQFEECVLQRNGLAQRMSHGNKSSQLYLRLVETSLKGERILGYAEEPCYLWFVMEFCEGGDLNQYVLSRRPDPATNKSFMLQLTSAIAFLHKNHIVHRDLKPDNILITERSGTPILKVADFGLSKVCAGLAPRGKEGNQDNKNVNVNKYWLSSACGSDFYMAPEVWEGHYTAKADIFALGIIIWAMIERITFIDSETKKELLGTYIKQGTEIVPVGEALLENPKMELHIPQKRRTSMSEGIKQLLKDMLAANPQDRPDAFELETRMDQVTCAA
Description: as §1, §2, §3

MLCK = MLCK (Homo sapiens (Human), UniProt Q32MK0); details: read-out: % control
Description: as §1, §2, §3

ASK1 = ASK1 (Homo sapiens (Human), UniProt Q99683); details: read-out: % control
Description: as §1, §2, §3

PLK1 = PLK1 (Homo sapiens (Human), UniProt P53350); details: read-out: % control
Description: as §1, §2, §3

MAST1 = MAST1 (Homo sapiens (Human), UniProt Q9Y2H9); details: read-out: % control
Description: as §1, §2, §3

PRKCI = PRKCI (Homo sapiens (Human), UniProt P41743); details: read-out: % control
Description: as §1, §2, §3

WEE2 = WEE2 (Homo sapiens (Human), UniProt P0C1S8); details: read-out: % control
Sequence of WEE2 (P0C1S8 whole entry): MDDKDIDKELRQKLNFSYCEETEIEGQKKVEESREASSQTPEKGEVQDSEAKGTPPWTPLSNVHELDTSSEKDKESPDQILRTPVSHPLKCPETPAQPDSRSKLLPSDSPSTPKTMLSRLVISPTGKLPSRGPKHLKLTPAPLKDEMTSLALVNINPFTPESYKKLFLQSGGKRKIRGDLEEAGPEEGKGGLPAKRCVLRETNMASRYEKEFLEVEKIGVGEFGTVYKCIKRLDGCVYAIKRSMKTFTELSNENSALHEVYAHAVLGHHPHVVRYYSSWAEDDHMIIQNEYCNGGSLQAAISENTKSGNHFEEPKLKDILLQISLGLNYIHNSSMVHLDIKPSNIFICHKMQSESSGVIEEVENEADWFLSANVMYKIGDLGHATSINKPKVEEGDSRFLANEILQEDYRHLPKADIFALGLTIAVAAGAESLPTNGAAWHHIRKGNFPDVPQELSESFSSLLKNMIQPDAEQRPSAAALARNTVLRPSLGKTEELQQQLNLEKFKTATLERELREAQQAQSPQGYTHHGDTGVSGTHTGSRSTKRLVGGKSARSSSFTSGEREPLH
Description: as §1, §2, §3

`CCNc1cc(Nc2ccc(C(=O)N3CCC(N4CCOCC4)CC3)cc2OC)nc2[nH]cc(C#N)c12` [Example 18, 4-(ethylamino)-6-((2-methoxy-4-(4-morpholinopiperidine-1-carbonyl)phenyl)amino)-1H-pyrrolo[2,3-b]pyridine-3-carbonitrile] was tested, and the remaining binding at 1 µM (IRAK1) was 79%, the remaining binding at 1 µM (DMPK2) was 85% and the remaining binding at 1 µM (ABL1-phosphorylated) was 87%. For the same compound, the remaining binding at 1 µM [1] was 80%, the remaining binding at 1 µM [2] was 10% and the remaining binding at 1 µM (JNK1) was 0%. The remaining binding at 1 µM (TNIK) was 89%, the remaining binding at 1 µM (CASK) was 76% and the remaining binding at 1 µM (PIM3) was 78%. It also gave a remaining binding at 1 µM (AKT3) of 96%, a remaining binding at 1 µM (EGFR(S752-I759del)) of 99% and a remaining binding at 1 µM [3] of 100%. For the same compound, the percent of control binding at 1 µM (CSNK1D; CSNK1D, 1 uM) was 5.3%, the remaining binding at 1 µM (CDKL3) was 100% and the remaining binding at 1 µM [4] was 64%. For the same compound, the “% control” value (FLT3(ITD, F691L)) was 46%, the remaining binding at 1 µM (TTK) was 8.9% and the remaining binding at 1 µM (TGFBR2) was 100%. The remaining binding at 1 µM (FGFR3(G697C)) was 88%, the remaining binding at 1 µM (PDGFRB) was 76% and the remaining binding at 1 µM (NEK9) was 91%. For the same compound, the remaining binding at 1 µM (TXK) was 99%, the remaining binding at 1 µM (PAK4) was 88% and the remaining binding at 1 µM (ADCK4) was 100%. For the same compound, the remaining binding at 1 µM (CSNK1A1) was 8.2%, the remaining binding at 1 µM (SRPK1) was 89% and the remaining binding at 1 µM (NDR1) was 69%. It also gave a remaining binding at 1 µM (IKK-beta) of 77%, a remaining binding at 1 µM (FLT3(D835H)) of 89% and a remaining binding at 1 µM (p38-beta) of 77%. For the same compound, the remaining binding at 1 µM (SIK) was 100%, the remaining binding at 1 µM (STK35) was 85% and the remaining binding at 1 µM (MLCK) was 87%. For the same compound, the remaining binding at 1 µM (ASK1) was 79%, the remaining binding at 1 µM (PLK1) was 41% and the remaining binding at 1 µM (MAST1) was 93%. The remaining binding at 1 µM (PRKCI) was 76% and the remaining binding at 1 µM (WEE2) was 91%.

Compound `CCNc1cc(Nc2ccc(C(=O)N3CCC(N4CCOCC4)CC3)cc2OC)nc2[nH]cc(C(F)(F)F)c12` [Example 57, (4-((4-(ethylamino)-3-(trifluoromethyl)-1H-pyrrolo[2,3-b]pyridin-6-yl)amino)-3-methoxyphenyl) (4-morpholinopiperidin-1-yl)methanone] has a remaining binding at 1 µM (IRAK1) of 100%, a remaining binding at 1 µM (DMPK2) of 96% and a remaining binding at 1 µM (ABL1-phosphorylated) of 61%. The remaining binding at 1 µM [1] was 100%, the remaining binding at 1 µM [2] was 83% and the remaining binding at 1 µM (JNK1) was 40%. For the same compound, the remaining binding at 1 µM (TNIK) was 94%, the remaining binding at 1 µM (CASK) was 88% and the remaining binding at 1 µM (PIM3) was 78%. For the same compound, the remaining binding at 1 µM (AKT3) was 96%, the remaining binding at 1 µM (EGFR(S752-I759del)) was 75% and the remaining binding at 1 µM [3] was 97%. It also gave a percent of control binding at 1 µM (CSNK1D) of 30%, a remaining binding at 1 µM (CDKL3) of 61% and a remaining binding at 1 µM [4] of 77%. For the same compound, the “% control” value (FLT3(ITD, F691L)) was 84%, the remaining binding at 1 µM (TTK) was 67% and the remaining binding at 1 µM (TGFBR2) was 97%. The remaining binding at 1 µM (FGFR3(G697C)) was 78%, the remaining binding at 1 µM (PDGFRB) was 92% and the remaining binding at 1 µM (NEK9) was 89%. It also gave a remaining binding at 1 µM (TXK) of 85%, a remaining binding at 1 µM (PAK4) of 93% and a remaining binding at 1 µM (ADCK4) of 75%. For the same compound, the remaining binding at 1 µM (CSNK1A1) was 51%, the remaining binding at 1 µM (SRPK1) was 85% and the remaining binding at 1 µM (NDR1) was 89%. The remaining binding at 1 µM (IKK-beta) was 100%, the remaining binding at 1 µM (FLT3(D835H)) was 100% and the remaining binding at 1 µM (p38-beta) was 76%. The remaining binding at 1 µM (SIK) was 90%, the remaining binding at 1 µM (STK35) was 98% and the remaining binding at 1 µM (MLCK) was 78%. It also gave a remaining binding at 1 µM (ASK1) of 77%, a remaining binding at 1 µM (PLK1) of 100% and a remaining binding at 1 µM (MAST1) of 66%. The remaining binding at 1 µM (PRKCI) was 63% and the remaining binding at 1 µM (WEE2) was 96%.
